Laboratory results as given in PubChem BioAssay (NCI).
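Five compound concentrations were applied to cells in 96-well plates for 48 hours; endpoints were derived by simple linear interpolation of the resulting dose-response curve. At the TGI there is no net growth.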

Experiments:
Test in all cases: NCI-60 cell line screen, 48 h
[1] = system: IGROV1 ovarian
[2] = system: SK-MEL-28 melanoma
[3] = system: PC-3 prostate
[4] = system: RPMI-8226 leukemia
[5] = system: NCI-H460 lung
[6] = system: M14 melanoma
[7] = system: SF-268 CNS
[8] = system: U251 CNS
[9] = system: HCT-116 colon
[10] = system: OVCAR-4 ovarian
[11] = system: CAKI-1 renal
[12] = system: KM12 colon
[13] = system: SN12C renal
[14] = system: NCI-H522 lung
[15] = system: SR leukemia
[16] = system: UACC-62 melanoma
[17] = system: CCRF-CEM leukemia
[18] = system: SK-MEL-2 melanoma
[19] = system: 786-0 renal
[20] = system: COLO 205 colon
[21] = system: SNB-75 CNS
[22] = system: DU-145 prostate
[23] = system: NCI-H23 lung
[24] = system: HCC-2998 colon
[25] = system: HOP-62 NSCLC
[26] = system: MDA-MB-435
[27] = system: NCI/ADR-RES ovarian
[28] = system: MOLT-4 leukemia
[29] = system: UO-31 renal
[30] = system: UACC-257 melanoma
[31] = system: T-47D breast
[32] = system: SNB-19 CNS
[33] = system: HOP-92 NSCLC
[34] = system: EKVX NSCLC
[35] = system: SK-MEL-5 melanoma
[36] = system: HT29 colon
[37] = system: MDA-MB-231 breast
[38] = system: OVCAR-3 ovarian
[39] = system: SF-539 CNS
[40] = system: SW-620 colon
[41] = system: SF-295 CNS
[42] = system: ACHN renal
[43] = system: RXF 393 renal
[44] = system: K-562 leukemia
[45] = system: HS 578T breast
[46] = system: HCT-15 colon
[47] = system: MALME-3M melanoma
[48] = system: A498 renal
[49] = system: A549 NSCLC
[50] = system: TK-10 renal
[51] = system: OVCAR-5 ovarian
[52] = system: BT-549 breast
[53] = system: MDA-N
[54] = system: NCI-H226 lung
[55] = system: MCF7 breast
[56] = system: DLD-1 colon
[57] = system: LXFL 529 NSCLC
[58] = system: OVCAR-8 ovarian
[59] = system: HL-60(TB) leukemia
[60] = system: DMS 114 small cell lung
[61] = system: M19-MEL melanoma
[62] = system: SNB-78 CNS
[63] = system: LOX IMVI melanoma
[64] = system: SK-OV-3 ovarian
[65] = system: HOP-18 NSCLC

COC(=O)[C@@H](Cc1ccccc1)N1O[C@]12CCCC[C@@H]2NC(=O)OC(C)(C)C (stereo partly specified)
TGI [1]: 27.8 µM | TGI [2]: 60.7 µM | TGI [3]: 84.2 µM | TGI [4]: > 100 µM | TGI [5]: 90.6 µM | TGI [6]: 50.9 µM | TGI [7]: 34.9 µM | TGI [8]: 77.9 µM | TGI [9]: > 100 µM | TGI [10]: > 100 µM | TGI [11]: 90.4 µM | TGI [12]: > 100 µM | TGI [13]: > 100 µM | TGI [14]: 30.4 µM | TGI [15]: 74.4 µM | TGI [16]: 48.7 µM | TGI [17]: 35.9 µM | TGI [18]: 49 µM | TGI [19]: 51.3 µM | TGI [20]: 75.5 µM | TGI [21]: 77.3 µM | TGI [22]: 79 µM | TGI [23]: 51.8 µM | TGI [24]: > 100 µM | TGI [25]: 38.2 µM | TGI [26]: 54.5 µM | TGI [27]: 52.4 µM | TGI [28]: > 100 µM | TGI [29]: 27.5 µM | TGI [30]: > 100 µM | TGI [31]: 62.4 µM | TGI [32]: > 100 µM | TGI [33]: 55.5 µM | TGI [34]: 82.3 µM | TGI [35]: 35.8 µM | TGI [36]: 32.2 µM | TGI [37]: 42.4 µM | TGI [38]: 57.1 µM | TGI [39]: 33.3 µM | TGI [40]: 29.3 µM | TGI [41]: > 100 µM | TGI [42]: 32.5 µM | TGI [43]: 56.1 µM | TGI [44]: > 100 µM | TGI [45]: 55.8 µM | TGI [46]: 33.5 µM | TGI [47]: 56 µM | TGI [48]: > 100 µM | TGI [49]: > 100 µM | TGI [50]: 49 µM | TGI [51]: 71.7 µM | TGI [52]: 34.8 µM | TGI [53]: 39.1 µM | TGI [54]: > 100 µM | TGI [55]: 28.5 µM

O=[N+]([O-])c1ccc(/C=C/c2csnn2)cc1
TGI [1]: > 100 µM | TGI [2]: > 100 µM | TGI [4]: > 100 µM | TGI [5]: > 100 µM | TGI [6]: > 100 µM | TGI [7]: > 100 µM | TGI [8]: > 100 µM | TGI [9]: > 100 µM | TGI [56]: > 100 µM | TGI [10]: > 100 µM | TGI [57]: > 100 µM | TGI [11]: > 100 µM | TGI [12]: > 100 µM | TGI [13]: > 100 µM | TGI [14]: > 100 µM | TGI [16]: > 100 µM | TGI [17]: > 100 µM | TGI [18]: > 100 µM | TGI [19]: > 100 µM | TGI [58]: > 100 µM | TGI [23]: > 100 µM | TGI [24]: > 100 µM | TGI [25]: > 100 µM | TGI [28]: > 100 µM | TGI [29]: > 100 µM | TGI [59]: > 100 µM | TGI [30]: > 100 µM | TGI [60]: > 100 µM | TGI [61]: > 100 µM | TGI [62]: > 100 µM | TGI [32]: > 100 µM | TGI [63]: > 100 µM | TGI [33]: > 100 µM | TGI [34]: > 100 µM | TGI [35]: > 100 µM | TGI [36]: > 100 µM | TGI [38]: > 100 µM | TGI [64]: > 100 µM | TGI [39]: > 100 µM | TGI [40]: > 100 µM | TGI [41]: > 100 µM | TGI [42]: > 100 µM | TGI [43]: > 100 µM | TGI [44]: > 100 µM | TGI [65]: > 100 µM | TGI [46]: > 100 µM | TGI [47]: > 100 µM | TGI [49]: > 100 µM | TGI [50]: > 100 µM | TGI [51]: > 100 µM | TGI [54]: > 100 µM
